The compounds below were run on transgenic mice that express both human CETP and human apolipoprotein A-1 (assay: Assay of plasma lipids in vivo (HDL cholesterol elevation)). Conditions: single oral dose 30 mg/kg; 8 hr after dosing; serum HDL cholesterol relative to control; human CETP/human apoA-1 transgenic mice.
Experimental: Assay of Plasma Lipids In Vivo
Activity of compounds of this invention in vivo can be determined by comparing the level of elevation of HDL cholesterol relative to control by a given amount of a compound in a CETP-containing animal species. A strain of transgenic mice that express both human CETP and human apolipoprotein A-1 (Taconic, Germantown, N.Y.) is used to test compounds of this invention. Test compounds are administered once orally in selected aqueous or oil based vehicles. At various times after dosing, ranging from 4 h to 24 h, blood is obtained. Blood is allowed to clot and serum is obtained by centrifugation. HDL cholesterol levels in the serum is determined by HDL-C plus reagents (Roche/Hitachi, Indianapolis, Ind.) with a clinical chemistry analyzer (Roche/Hitachi, Indianapolis, Ind.). Additional serum lipids can be analyzed by enzymatic methods. Lipids in the VLDL, LDL and HDL fractions are analyzed by enzymatic methods after precipitation or size exclusion chromatography.

Row | SMILES | % HDL cholesterol increase
1 | CCC1CC(N(Cc2cc(C(F)(F)F)cc(C(F)(F)F)c2)c2nnn(C)n2)c2nc(OC)ccc2N1C(=O)OC(C)C (racemic) [Example 8, (+/−)-cis-4-[(3,5-Bis-trifluoromethyl-benzyl)-2-methyl-2H-tetrazol-5-yl)-amino]-2-ethyl-6-methoxy-3,4-dihydro-2H-[1,5]naphthyridine-1-carboxylic acid isopropyl ester] | 313%
2 | CC(C)OC(=O)N1c2ccc(C(F)(F)F)nc2C(N(Cc2cc(C(F)(F)F)cc(C(F)(F)F)c2)c2nnn(C)n2)CC1C1CC1 (racemic) [Example 52, (+/−)-cis-4-[(3,5-Bis-trifluoromethyl-benzyl)-(2methyl-2H-tetrazole-5-yl)-amino]-2-cyclopropyl-6-trifluoromethyl-3,4-dihydro-2H-[1,5]naphthyridine-1-carboxylic acid isopropyl ester] | 66%
3 | CC[C@H]1C[C@@H](N(Cc2cc(C(F)(F)F)cc(C(F)(F)F)c2)c2nnn(CCO)n2)c2nc(C(F)(F)F)ccc2N1C(=O)OC(C)C (stereo in doubt) [Example 18, (2S,4R)-4-[(3,5-Bis-trifluoromethyl-benzyl)-[2-(2-hydroxy-ethyl)-2H-tetrazol-5-yl)-amino]-2-ethyl-6-trifluoromethyl-3,4-dihydro-2H-[1,5]naphthyridine-1-carboxylic acid isopropyl ester] | 187%
4 | CC[C@@H]1C[C@H](N(Cc2cc(C(F)(F)F)cc(C(F)(F)F)c2)c2nnn(C)n2)c2nc(C(F)(F)F)ccc2N1C(=O)OC(C)C [Example 11] | 134%
5 | CC[C@@H]1C[C@H](N(Cc2cc(C(F)(F)F)cc(C(F)(F)F)c2)c2nnn(CCN)n2)c2nc(C(F)(F)F)ccc2N1C(=O)OC(C)C [Example 15, (2R,4S)-cis-4-[[2-(2-Amino-ethyl)-2H-tetrazol-5-yl]-(3,5-bis-trifluoromethyl-benzyl)-amino]-2-ethyl-6-trifluoromethyl-3,4-dihydro-2H-[1,5]naphthyridine-1-carboxylic acid isopropyl ester] | 91%

Source: US7470705B2, “Compounds and methods for treating dyslipidemia” (Eli Lilly and Company, priority 2004, dated 2008)
